The source of these data is US8551963B2, “Imidazolothiazole compounds and methods of use thereof” (Ambit Biosciences Corporation, priority 2008, dated 2013).

As a reminder, the solubility is how much of the substance goes into solution per volume. One may read the efflux ratio as the permeability from basolateral to apical divided by that in the opposite direction, in the common usage. What is called Papp A→B is the apparent permeability from the apical to the basolateral side of a cell layer. Broadly, the Papp B→A is the apparent permeability from the basolateral to the apical side of a cell layer. Usually microsomal CLint stands for the capacity of the preparation to metabolise the compound, expressed as a volume cleared per time.

Molecules are shown by their SMILES. ≈ marks a conversion by molar mass, not a printed value. Counter-ions that a name gives are not always drawn. Like-named read-outs stand apart in the source and are kept apart here.

Series [1] concerns MDR1-MDCK cells. The note with it: dog, MDCK-MDR1, 10 μM, pH 7.4.
Series [2] in a line: Microsomal stability, pooled mouse liver microsomes. It is filed as in vitro ADME. The note with it: pH 7.4. As to the method:
Microsomes were stored at −80° C. prior to use.
The final incubation volume was 600 μL.
The elimination rate constant (k)=(−slope)

Series [3] is described as follows: Microsomal stability and metabolic turnover, pooled rat liver microsomes. The note with it: pH 7.4.
Series [4] in a line: Microsomal stability and metabolic turnover, pooled dog liver microsomes. The note with it: pH 7.4. (Liver microsomes are a subcellular fraction often used to study metabolism.)
Series [5] can be described thus: Microsomal stability and metabolic turnover, pooled human liver microsomes. The note with it: both, pH 7.4.
The nature of series [6]: Microsomal stability and metabolic turnover, pooled Cynomolgus monkey liver microsomes. The note with it: pH 7.4.
A short description of series [7]: Aqueous and surfactant solubility. Conditions: room temperature overnight. It is filed as physicochemical.
In series [8] the test system is P-glycoprotein (MDR1). Description: in vitro. The note with it: dog.
For series [9], the system named is plasma protein. Kind of series: Plasma protein binding assay (equilibrium dialysis). Format: in vitro ADME. Conditions: 1 μM, equilibrium dialysis 16-20 hours at 37° C. As to the method: Reagents: 1× Isotonic PBS (Mediatech, Inc., Herndon, Va.); 96 Well Equilibrium Dialyzer (Harvard Apparatus, Holliston, Mass.) and Animal plasma from species of interest.
1 μM solutions of test compound were prepared in both isotonic PBS and 10% animal plasma in isotonic PBS.
200 μl of each test solution was added to opposite sides of the equilibrium dialysis membrane.
Samples were incubated for 16-20 hours at 37° C.
After incubation, 100 μl sample was removed from the PBS side and diluted with 100 μl of 20% animal plasma in PBS.
100 μl sample was removed from the 10% animal plasma side and diluted with 100 μl of 10% animal plasma.
A calibration curve was prepared in 10% animal plasma to extrapolate unknown concentrations.
Samples were analyzed by LC/MS/MS.
50 μl of samples, calibration standards and quality control standards were extracted with 100 μl of acetonitrile containing 25 ng/ml of internal standard.
Calculations Calculate fraction unbound in 10% plasma Fu(10%)=1−(PC−PF)/PC) Convert 10% plasma value to 100% Fu(100%)=Fu10%/(10−9*Fu10%).
A general note: In equilibrium dialysis free small molecules cross a membrane that holds back macromolecules.

Series [10] in a line: In vivo clearance, mouse. The note with it: clearance call in words. An excerpt: (§1) Clearance was modest in dog microsomes, and high in Cynomolgus monkey microsomes. Using a comparison of in vitro and in vivo clearance, human clearance can be predicted. The in vitro intrinsic clearance is influenced by animal weight, hepatic blood flow, relative liver weight, and amount of protein/liver weight. […] Human clearance is predicted to be low (Table 2).

The nature of series [11]: In vivo clearance, rat.
Source text: as §1

The nature of series [12]: In vivo clearance, dog.
Source text: as §1

A short description of series [13]: In vivo clearance, monkey.
Source text: as §1

The nature of series [14]: Predicted human in vivo clearance. The note with it: predicted from comparison of in vitro and in vivo clearance.
Source text: as §1

Series [15] deals with MV4;11 cells. Description: MV4;11 cellular proliferation assay (Cell Titer Blue). It is filed as cell-based. Conditions: Homo sapiens, MV4-11, 72 h, read-out: EC50 (50% inhibition of cellular proliferation).
Series [16] has as its system RS4;11 cells. Kind of series: RS4;11 cellular proliferation assay (Cell Titer Blue). It is filed as cell-based. Conditions: Homo sapiens, RS4-11, 48 h, read-out: EC50 (50% inhibition of cellular proliferation).
The conditions of series [17]: dog, microsomes, 1 μM, pH 7.4.
Series [18] can be described thus: in vitro. The note with it: rat, microsomes, pH 7.4.
A short description of series [19]: in vitro. Conditions: dog, microsomes.
Series [20] in a line: in vitro. Conditions: monkey, microsomes, pH 7.4.
Series [21] is described as follows: in vitro. Conditions: both, human, microsomes, pH 7.4.
The target of series [22] is P-Glycoprotein (Homo sapiens (Human), UniProt P08183). Description: Digoxin bidirectional MDR1-MDCK permeability, Compound I-1 as an inhibitor. Conditions: dog; for Papp A→B at 1 μM: MDCK-MDR1, pH 7.4, Digoxin PeAP→BL; for Papp B→A at 1 μM: MDCK-MDR1, pH 7.4, Digoxin PeBL→AP.
The mark [23] stands for this setting: in vivo, read-out: In Vivo t1/2 (converted).
The mark [24] stands for this setting: Table 17, Digoxin 1 μM alone, Std.
Setting [25] is: Table 17, Digoxin 1 μM alone, Surf.
The mark [26] stands for this setting: preliminary experiment, Digoxin 1 μM alone, Std.
[27] abbreviates: preliminary experiment, Digoxin 1 μM alone, Surf.

P-Glycoprotein, sequence (P08183 whole entry): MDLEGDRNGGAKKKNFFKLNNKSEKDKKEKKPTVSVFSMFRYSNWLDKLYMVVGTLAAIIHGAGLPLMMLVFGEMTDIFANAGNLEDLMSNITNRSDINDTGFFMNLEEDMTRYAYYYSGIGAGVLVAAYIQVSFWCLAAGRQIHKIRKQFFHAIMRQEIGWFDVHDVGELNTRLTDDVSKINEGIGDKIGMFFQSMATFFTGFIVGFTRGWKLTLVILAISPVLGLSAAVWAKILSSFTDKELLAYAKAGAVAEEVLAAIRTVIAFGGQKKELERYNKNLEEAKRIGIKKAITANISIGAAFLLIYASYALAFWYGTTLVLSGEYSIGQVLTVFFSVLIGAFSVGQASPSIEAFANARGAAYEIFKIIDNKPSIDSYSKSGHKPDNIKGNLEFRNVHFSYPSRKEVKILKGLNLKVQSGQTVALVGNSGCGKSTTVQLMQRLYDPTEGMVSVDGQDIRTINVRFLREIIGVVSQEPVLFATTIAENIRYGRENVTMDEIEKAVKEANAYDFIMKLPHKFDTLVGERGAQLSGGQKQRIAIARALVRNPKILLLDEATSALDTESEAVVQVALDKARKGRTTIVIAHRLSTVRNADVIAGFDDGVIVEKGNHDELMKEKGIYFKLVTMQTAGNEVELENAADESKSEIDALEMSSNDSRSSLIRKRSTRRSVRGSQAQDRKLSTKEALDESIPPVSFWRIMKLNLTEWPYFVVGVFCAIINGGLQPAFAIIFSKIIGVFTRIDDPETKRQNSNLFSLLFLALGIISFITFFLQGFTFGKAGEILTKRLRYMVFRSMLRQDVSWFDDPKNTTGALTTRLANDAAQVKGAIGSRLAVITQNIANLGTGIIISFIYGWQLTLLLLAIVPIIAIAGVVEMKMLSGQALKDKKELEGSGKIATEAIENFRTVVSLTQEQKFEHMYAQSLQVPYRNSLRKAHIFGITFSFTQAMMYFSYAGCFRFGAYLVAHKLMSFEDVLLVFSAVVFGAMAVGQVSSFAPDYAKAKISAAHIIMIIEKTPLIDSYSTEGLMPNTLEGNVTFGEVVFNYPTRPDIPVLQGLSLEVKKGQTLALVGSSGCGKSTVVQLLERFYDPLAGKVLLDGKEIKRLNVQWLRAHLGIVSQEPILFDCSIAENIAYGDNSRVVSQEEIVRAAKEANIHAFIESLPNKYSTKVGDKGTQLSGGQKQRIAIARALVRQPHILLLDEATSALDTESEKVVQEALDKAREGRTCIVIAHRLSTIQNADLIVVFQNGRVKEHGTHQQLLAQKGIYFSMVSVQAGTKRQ

As for `CNC(=C[N+](=O)[O-])NCCSCc1ccc(CN(C)C)o1` [Ranitidine], in [1], the “Assymetry Index” value is 1.9, the PeAP→BL was 1.63 ×10⁻⁶ cm/s and the PeBL→AP is 3.02 ×10⁻⁶ cm/s.
As to `C[C@]12CC[C@H]3[C@@H](CCC4=CC(=O)CC[C@@]43C)[C@@H]1CC[C@@H]2O` [Testosterone], the half-life at 1 μM is 6 min in series [2] (mouse liver microsomes, 1 μM, 0.5 mg/mL, NADPH, read-out: Half-life); 4 min in series [3]; 60 min in series [4]; 11 min in series [5]; 3 min in series [6].
As to `COC(=O)[C@H]1[C@H]2C[C@@H]3c4[nH]c5cc(OC)ccc5c4CCN3C[C@H]2C[C@@H](OC(=O)c2cc(OC)c(OC)c(OC)c2)[C@@H]1OC` [Reserpine], the solubility in series [7] (HBSS buffer with 0.05% Polysorbate 80, pH 7.4, aqueous with cosolvent or surfactant or cyclodextrin, kinetic from dmso stock, HBSS containing 0.05% Polysorbate 80, 2.5% DMSO, read-out: Average Aqueous Solubility, 0.05% Polysorbate 80) was 5 µM (≈ 3.04 µg/mL); in series [7] (Hank's balanced salt solution (HBSS) buffer, aqueous buffer, kinetic from dmso stock, HBSS pH 7.4, 2.5% DMSO, read-out: Average Aqueous Solubility, pH 7.4), less than 1 µM.
On to `CC(C)NCC(O)COc1cccc2[nH]ccc12` (stereo not drawn) [Pindolol], for which, in series [8] (MDCK-MDR1, pH 7.4, Assymetry Index), the efflux ratio at 10 μM was 1. For the same compound, the Papp A→B at 10 μM in series [8] (MDCK-MDR1, pH 7.4, PeAP→BL) came out at 31.7 ×10⁻⁶ cm/s. The Papp B→A at 10 μM in series [8] (MDCK-MDR1, pH 7.4, PeBL→AP) worked out at 30.6 ×10⁻⁶ cm/s.
With `CC(=O)N1CCN(c2ccc(OCC3COC(Cn4ccnc4)(c4ccc(Cl)cc4Cl)O3)cc2)CC1` (stereo not drawn) [Ketoconazole], the solubility in series [7] (HBSS containing 0.05% Polysorbate 80, 2.5% DMSO, read-out: Average Aqueous Solubility, 0.05% Polysorbate 80) amounted to 86 µM (≈ 45.7 µg/mL); in series [7] (HBSS pH 7.4, 2.5% DMSO, read-out: Average Aqueous Solubility, pH 7.4), 18 µM (≈ 9.57 µg/mL).
On to `CC(C)(C)c1cc(NC(=O)Nc2ccc(-c3cn4c(n3)sc3cc(OCCN5CCOCC5)ccc34)cc2)no1` [Compound IA, hydrochloride salt, N-(5-tert-butyl-isoxazol-3-yl)-N′-{4-[7-(2-morpholin-4-yl-ethoxy)imidazo[2,1-b][1,3]benzothiazol-2-yl]phenyl}urea, reference compound], for which the “Percentage of unbound compound in 10% plasma” value in series [9] is listed as 17%.
As to `CC(C)(C)c1cc(NC(=O)Nc2ccc(-c3cn4c(n3)sc3cc(OCCN5CCOCC5)ccc34)cc2)no1` [Compound IA, N-(5-tert-butyl-isoxazol-3-yl)-N′-{4-[7-(2-morpholin-4-yl-ethoxy)imidazo[2,1-b][1,3]benzothiazol-2-yl]phenyl}urea], the half-life at 1 μM in series [2] (mouse, microsomes) is greater than 60 min; in series [18], greater than 60 min; in [19] (pH 7.4, Half-life), 33 min; in series [20] it was 19 min; in [21], greater than 60 min. In addition, the intrinsic metabolic clearance (microsomal CLint) at 1 μM was less than 23 µL/min/mg in series [2] (mouse, microsomes); less than 23 µL/min/mg in series [18]; 42 µL/min/mg in series [19] (pH 7.4); 73 µL/min/mg in series [20]; less than 23 µL/min/mg in series [21]. Moreover, the “In Vivo Cl” value was “Low” in series [10]; “Low” in series [11] (clearance call in words); “Modest” in series [12] (clearance call in words); “High” in [13] (clearance call in words); “low and Low” in series [14]. Further, the half-life in series [11] (setting [23]) is 414 min; in [12] (setting [23]) it was 366 min; in [13] (setting [23]), 162 min; in series [17] it was 24 min. Further, the EC50 in series [15] came to 0.6 nM; in series [16] it was 4 nM.
With `C[C@H]1O[C@@H](O[C@H]2[C@@H](O)C[C@H](O[C@H]3[C@@H](O)C[C@H](O[C@H]4CC[C@@]5(C)[C@H](CC[C@@H]6[C@@H]5C[C@@H](O)[C@]5(C)[C@@H](C7=CC(=O)OC7)CC[C@]65O)C4)O[C@@H]3C)O[C@@H]2C)C[C@H](O)[C@@H]1O` [Digoxin, reference compound], the Papp A→B at 1 μM is 8.76 ×10⁻⁶ cm/s in series [22] (setting [24]), 2.21 ×10⁻⁶ cm/s in series [22] (setting [25]), 0.24 ×10⁻⁶ cm/s in series [22] (setting [26]) and 2.91 ×10⁻⁶ cm/s in series [22] (setting [27]). The Papp B→A at 1 μM in series [22] (setting [24]) was determined as 29.3 ×10⁻⁶ cm/s; in series [22] (setting [25]) it was 4.93 ×10⁻⁶ cm/s; in series [22] (setting [26]), 20 ×10⁻⁶ cm/s; in [22] (setting [27]), 6.03 ×10⁻⁶ cm/s.
